Among the data in patent US10604514B2, “6-(5-membered heteroaryl)isoquinolin-3-yl carboxamides and preparation and use thereof” (Samumed, LLC, priority 2017, dated 2020) are EC50 and inhibition values, retold here.

Where two headings read alike, the source gives them in different places.

One experiment has as its target GSK3β kinase (Homo sapiens (Human), UniProt P49841). Kind of experiment: GSK3β kinase assay (Ser/Thr 09 peptide Z-lyte, FRET).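 Also: Coumarin/fluorescein emission ratio converted to percent phosphorylation against unphosphorylated (0%) and phosphorylated (100%) controls, 1 h compound incubation at room temperature, 11-point threefold dilutions from 10 µM, run in duplicate.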 Format: biochemical. The following applies: method text calls the value IC50.
Experiment [1] deals with LL29 cells (primary human fibroblasts derived from IPF patients), α-smooth muscle actin. Kind of experiment: Inhibition of fibrotic process: αSMA in TGF-β1-treated primary human fibroblasts from IPF patients (LL29 cells). Format: cell-based. The following applies: Homo sapiens, Fibroblast; for EC50: 96 h, % αSMA-positive LL29 cells, TGF-β1 20 ng/mL, 4 days; for inhibition at 10 µM: read-out: percent inhibition at 10 μM. The gist of the method:
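Read-out is the percentage of αSMA-positive cells by high-content imaging, excluding SYTOX green-positive dead/apoptotic cells, normalized to TGF-β1-only wells on the same plate. LL29 cells were exposed for 4 days at 37 °C to 20 ng/mL TGF-β1 plus 11-point, 2-fold compound dilutions in 0.1% DMSO.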

Experiment [2] deals with SW480 colon carcinoma cells. Kind of experiment: Cell viability assay (CellTiter-Glo) in SW480 cells.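 Also: SW480 cells stably carrying an Sp5-luciferase TCF/LEF reporter, luminescent ATP signal as viability measure, DMSO-treated cells as control.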 Format: cell-based, human. Background: In ATP-based viability assays light output follows the ATP content of the culture.
In experiment [3] the test system is Tau phosphorylation at Ser396 (pSer396), SH-SY5Y cells. Put plainly: Tau phosphorylation at Ser396 (pSer396) in SH-SY5Y cells, ELISA/western blot.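 Also: cell lysates probed for reduced Tau pSer396 via ELISA (colorimetric) or western blot (chemiluminescence), both with one shared pSer396 antibody, EC50 for lowering phosphorylation.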 Format: cell-based, human. The following applies: Homo sapiens. On the technique in general: An ELISA detects its analyte on a solid surface through an enzyme-linked reagent.
Protocol: Two days before treatment, cells were seeded onto 96 well plates at 5×10^4 cells/well.
Wells were visually checked for cell death or change in morphology and supernatants were tested for cytotoxicity by measurement of lactate dehydrogenase release (LDH, CytoToxOne kit, Promega) if necessary.
Cells were lysed with RIPA buffer complemented with phosphatase and protease inhibitors then lysates were spun down at 12,000 g for 10 min to remove any cellular debris. Lysates are then either directly tested for pSer396 by ELISA (Life Technology, Kit KHB7031) or loaded on NuPage Bis-Tris gels for western blot analysis. Colorimetric detection of ELISA signal is performed by Cytation3 plate reader (Biotek) and the chemiluminescence signal for HRP-linked antibodies used in western blotting is detected using a Carestream Image Station. The same pSer396 antibody is used for detection of pTau in both assays.
Experiment [4] concerns Wnt activity (Sp5-Luc reporter in SW480 colon carcinoma cells). Kind of experiment: Wnt activity screening assay (Sp5-Luc reporter gene assay). Format: cell-based, human. The gist of the method: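 Compounds at 10 points (1:3 steps, top 10 μM, 0.1% DMSO final) were incubated 36 to 48 h at 37° C with stable Sp5-Luc SW480 reporter cells in 1% FBS medium. Luciferase luminescence was then read and expressed relative to DMSO-only cells. Four-parameter variable-slope fitting yielded EC50 values.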
(In general: Reporter assays use an easily measured gene product as a stand-in for the process of interest.)

The next experiment deals with IL-6. Put plainly: IL-6 inhibition in LPS-stimulated human peripheral blood mononuclear cells (HTRF). It is filed as cell-based. Particulars: Homo sapiens, PBMC; for inhibition at 10 µM: read-out: percent value in parentheses below EC50 >10; for EC50: IL-6, LPS-stimulated huPBMCs, HTRF. The procedure, abridged: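 EC50 from a 4-parameter fit of DMSO-normalized HTRF (665/620 nm) IL-6 signal, duplicates. Compound was added to fresh human PBMCs in 1% FBS RPMI for 2 h (top 10 μM, 3-fold, 0.25% DMSO) before 22 h stimulation with LPS at 50 ng/mL, 37 °C.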

The next experiment addresses DYRK1A kinase (Homo sapiens (Human), UniProt Q13627). Kind of experiment: DYRK1A kinase assay (Ser/Thr 18 peptide Z-lyte, FRET).
Setting [5] is: Homo sapiens, 96 h; cell viability, SW480 cells, four days, CellTiter-Glo.
Where [6] appears, read: Homo sapiens, SW480; read-out: percent inhibition at 10 μM.
The mark [7] stands for this setting: SH-SY5Y cells, overnight (16-18 h), read-out: pSer396 Tau EC50.
The mark [8] stands for this setting: Homo sapiens; Sp5-Luc reporter, SW480 cells, 36 to 48 hours.
The mark [9] stands for this setting: DYRK1A kinase, method text calls the value IC50.
[10] abbreviates: Homo sapiens, SW480, read-out: percent inhibition at 10 μM.
Setting [11] is: SH-SY5Y, read-out: pSer396 Tau EC50 (μM).

Chain of GSK3β kinase (P49841 whole entry): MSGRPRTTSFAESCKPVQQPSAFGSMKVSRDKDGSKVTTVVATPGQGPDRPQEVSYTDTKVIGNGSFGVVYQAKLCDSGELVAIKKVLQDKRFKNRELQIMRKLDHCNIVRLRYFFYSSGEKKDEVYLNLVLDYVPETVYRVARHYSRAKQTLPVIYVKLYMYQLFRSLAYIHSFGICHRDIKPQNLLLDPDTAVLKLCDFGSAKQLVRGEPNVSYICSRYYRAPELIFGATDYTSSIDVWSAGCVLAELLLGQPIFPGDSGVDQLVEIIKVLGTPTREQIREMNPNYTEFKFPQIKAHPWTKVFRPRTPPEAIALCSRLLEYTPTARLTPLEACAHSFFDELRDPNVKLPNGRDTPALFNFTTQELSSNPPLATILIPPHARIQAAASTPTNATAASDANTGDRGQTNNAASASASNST
Protocol for DYRK1A kinase: Each compound was dissolved in DMSO as a 10 mM stock and used to prepare compound source plates.
This is a non-radioactive assay using fluorescence resonance energy transfer (FRET) between coumarin and fluorescein to detect kinase activity which is represented as a ratio of coumarin emission/fluorescein emission.
The mixture was allowed to incubate with the representative compounds for one hour at room temperature. All reactions were performed in duplicate. Unphosphorylated (“0% Control”) and phosphorylated (“100% control”) forms of Ser/Thr 18 served as control reactions. Additionally, an 11-point dose-response curve of Staurosporine (1 uM top) was run to serve as a positive compound control.
After incubation, Development Reagent A was diluted in Development Buffer then added to the reaction and allowed to further incubate for one hour at room temperature.
The percent phosphorylation was then calculated using the following formula: [1−((Em ratio×F100%)−C100%)/((C0%−C100%)+(Em ratio×(F100%−F0%)))]. Dose-response curves were generated and inhibitory concentration (IC50) values were calculated using non-linear regression curve fit in the Dotmatics' Studies Software (Bishops Stortford, UK).
Protocol for GSK3β kinase: Representative compounds were screened using the assay procedure for GSK30 kinase activity as described below.
Each compound is dissolved in DMSO as a 10 mM stock and used to prepare compound source plates. Serial dilution (1:3, 11-point dose-response curves from 10 M to 0.0003 μM) and compound transfer was performed using the ECHO 550 (Labcyte, Sunnyvale, Calif.) into 1536-well black-walled round bottom plates (Corning).
This is a non-radioactive assay using fluorescence resonance energy transfer (FRET) between coumarin and fluorescein to detect kinase activity which is represented as ratio of coumarin emission/fluorescein emission.
The mixture is allowed to incubate with the representative compounds for one hour at room temperature. All reactions were performed in duplicate. Unphosphorylated (“0% Control”) and phosphorylated (“100% control”) forms of Ser/Thr 18 serve as control reactions.
After incubation, diluted Development Buffer is added to the reaction and allowed to further incubate for one hour at room temperature.
The percent phosphorylation is then calculated using the following formula: [1−((Em ratio×F100%)−C100%)/((C0%−C100%)+(Em ratio×(F100%−F0%)))].
Dose-response curves are generated and inhibitory concentration (IC50) values are calculated using non-linear regression curve fit in the Dotmatics' Studies Software (Bishops Stortford, UK).

With `Cc1nnc(-c2ccc3cnc(NC(=O)N4CCC(NCC(F)F)CC4)cc3c2)s1` [Compound 168, 4-((2,2-Difluoroethyl)amino)-N-(6-(5-methyl-1,3,4-thiadiazol-2-yl)isoquinolin-3-yl)piperidine-1-carboxamide], the EC50 was 20 nM at GSK3β kinase; 1300 nM in experiment [1]; over 10000 nM in experiment [2] (setting [5]); 0.578 µM in experiment [3] (setting [7]); over 10000 nM in experiment [4] (setting [8]); over 10000 nM in the experiment on IL-6. The compound further came in with an EC50 on DYRK1A kinase (setting [9]) of 4 nM. Moreover, the inhibition at 10 µM in experiment [2] (setting [6]) was 19.4%; in experiment [4] (setting [6]), 42.2%; in the experiment on IL-6, 14.2%.
Consider `CCCCN1CCC(C(=O)Nc2cc3cc(-c4cnn(C)c4)ccc3cn2)CC1` [Compound 169, 1-Butyl-N-(6-(1-methyl-1H-pyrazol-4-yl)isoquinolin-3-yl)piperidine-4-carboxamide], for which the concentration giving a half-maximal response (EC50) is 47 nM on GSK3β kinase; 148 nM in experiment [1]; 1130 nM in experiment [2] (setting [5]); 0.154 µM in experiment [3] (setting [7]); 2540 nM in experiment [4] (setting [8]); 1020 nM in the experiment with IL-6. This compound gave an EC50 on DYRK1A kinase (setting [9]) of 3 nM.
For `CC(C)C[N+]1(CC(C)C)CCC(C(=O)Nc2cc3cc(-c4cnn(C)c4)ccc3cn2)CC1` [Compound 170, 1,1-Diisobutyl-4-((6-(1-methyl-1H-pyrazol-4-yl)isoquinolin-3-yl)carbamoyl)piperidin-1-ium], the EC50 is 52 nM at GSK3β kinase; 7090 nM in experiment [1]; over 10000 nM in experiment [2] (setting [5]); 9.91 µM in experiment [3] (setting [7]); over 10000 nM in experiment [4] (setting [8]); over 10000 nM in the experiment on IL-6. On DYRK1A kinase, this compound came in with an EC50 of 15 nM. Besides, the values for the inhibition at 10 µM (in experiment [2] (setting [6]); in experiment [4] (setting [6]); in the experiment on IL-6) were 27%, 23.1% and 4.4%, respectively.
Consider `Cc1nnc(-c2ccc3cnc(NC(=O)N4C[C@H]5C[C@@H]4CN5C)cc3c2)s1` [Compound 176, (1R,4R)-5-Methyl-N-(6-(5-methyl-1,3,4-thiadiazol-2-yl)isoquinolin-3-yl)-2,5-diazabicyclo[2.2.1]heptane-2-carboxamide], for which the EC50 at GSK3β kinase was 207 nM; in experiment [1] it was over 10000 nM; in experiment [2] (setting [5]) it was over 10000 nM; in experiment [3] (setting [7]), 4 µM; in experiment [4] (setting [8]), 1040 nM; in the experiment with IL-6, over 10000 nM. For the same compound, a half-maximal effect at DYRK1A kinase (setting [9]) (EC50) was put at 23 nM. For the same compound, the inhibition at 10 µM was 8.4% in experiment [1], 8.3% in experiment [2] (setting [6]) and 8.4% with IL-6.
On to `CN[C@H]1CCN(C(=O)Nc2cc3cc(-c4nnc(C)s4)ccc3cn2)C[C@@H]1F` [Compound 179, (3S,4S)-3-Fluoro-N-(6-(5-methyl-1,3,4-thiadiazol-2-yl)isoquinolin-3-yl)-4-(methylamino)piperidine-1-carboxamide], for which the EC50 on GSK3β kinase is 26 nM; in experiment [1] it was over 10000 nM; in experiment [2] (setting [5]) it was 5060 nM; in experiment [3] (setting [7]), 1.3 µM; in experiment [4] (setting [8]), 2780 nM; in the experiment with IL-6 it was over 10000 nM. Besides, on DYRK1A kinase (setting [9]), it took 18 nM to reach a half-maximal effect (EC50). The inhibition at 10 µM (in experiment [1]; with IL-6) was 10.1% each time.
Consider `Cc1nnc(-c2ccc3cnc(NC(=O)N4[C@@H]5CC[C@H]4C[C@@H](NCC(F)F)C5)cc3c2)s1` [Compound 188, (1R,5S)-cis-3-((2,2-difluoroethyl)amino)-N-(6-(5-methyl-1,3,4-thiadiazol-2-yl)isoquinolin-3-yl)-8-azabicyclo [3.2.1]octane-8-carboxamide], for which the EC50 on GSK3β kinase was 154 nM; in experiment [1], 2480 nM; in experiment [2] (setting [5]), over 10000 nM; in experiment [3] (setting [11]) it was 4.8 µM; in experiment [4] (setting [8]), 8210 nM; with IL-6, 5770 nM. The compound also showed a half-maximal effective concentration (EC50) on DYRK1A kinase (setting [9]) of 3 nM. The inhibition at 10 µM in experiment [2] (setting [10]) is 28%.
`Cc1nnc(-c2ccc3cnc(NC(=O)N4[C@@H]5CC[C@H]4C[C@@H](N)C5)cc3c2)s1` [Compound 193, (1R,5S)-3-endo-Amino-N-(6-(5-methyl-1,3,4-thiadiazol-2-yl)isoquinolin-3-yl)-8-azabicyclo[3.2.1]octane-8-carboxamide]: the EC50 was 330 nM on GSK3β kinase; over 10000 nM in experiment [1]; over 10000 nM in experiment [2] (setting [5]); over 10 µM in experiment [3] (setting [11]); over 10000 nM in experiment [4] (setting [8]); over 10000 nM in the experiment on IL-6. The EC50 at DYRK1A kinase (setting [9]) turned out to be 33 nM. For the same compound, the inhibition at 10 µM in experiment [1] came to 6.5%; in experiment [2] (setting [10]), 12.8%; in experiment [4] (setting [10]), 8.4%; with IL-6, 6.5%.
In the case of `Cc1nnc(-c2ccc3cnc(NC(=O)[C@H]4CC[C@H](N5CCN(C)CC5)CC4)cc3c2)s1` [Compound 194, trans-N-(6-(5-methyl-1,3,4-thiadiazol-2-yl)isoquinolin-3-yl)-4-(4-methylpiperazin-1-yl)cyclohexane-1-carboxamide], the EC50 at GSK3β kinase is 12 nM; in experiment [1], 328 nM; in experiment [2] (setting [5]) it was 1260 nM; in experiment [3] (setting [7]), 0.218 µM; in experiment [4] (setting [8]) it was 681 nM; with IL-6, 3090 nM. Besides, a half-maximal response on DYRK1A kinase (setting [9]) (EC50) required 3 nM.
Consider `Cn1cc(-c2ccc3cnc(NC(=O)[C@H]4CC[C@H](NCCF)CC4)cc3c2)cn1` [Compound 197, trans-4-((2-Fluoroethyl)amino)-N-(6-(1-methyl-1H-pyrazol-4-yl)isoquinolin-3-yl)cyclohexane-1-carboxamide], for which the 50% effective concentration (EC50) at GSK3β kinase stood at 87 nM; in experiment [1], 233 nM; in experiment [2] (setting [5]), 1270 nM; in experiment [3] (setting [7]) it was 0.57 µM; in experiment [4] (setting [8]), 1420 nM; in the experiment with IL-6, 994 nM. The compound further registered an EC50 at DYRK1A kinase (setting [9]) of 3 nM.
As for `COCCN[C@H]1CC[C@H](C(=O)Nc2cc3cc(-c4nnc(C)s4)ccc3cn2)CC1` [Compound 199, trans-4-((2-Methoxyethyl)amino)-N-(6-(5-methyl-1,3,4-thiadiazol-2-yl)isoquinolin-3-yl)cyclohexane-1-carboxamide], the EC50 at GSK3β kinase was 17 nM; in experiment [1] it was 3200 nM; in experiment [2] (setting [5]) it was 1640 nM; in experiment [3] (setting [7]) it was 0.234 µM; in experiment [4] (setting [8]) it was 982 nM; in the experiment on IL-6, 3860 nM. The compound further showed an EC50 at DYRK1A kinase (setting [9]) of 4 nM.
Turning to `Cc1nnc(-c2ccc3cnc(NC(=O)[C@H]4CC[C@H](NCCF)CC4)cc3c2)s1` [Compound 200, trans-4-((2-Fluoroethyl)amino)-N-(6-(5-methyl-1,3,4-thiadiazol-2-yl)isoquinolin-3-yl)cyclohexane-1-carboxamide], the EC50 was 14 nM at GSK3β kinase; 533 nM in experiment [1]; 1390 nM in experiment [2] (setting [5]); 0.095 µM in experiment [3] (setting [7]); 841 nM in experiment [4] (setting [8]); 3980 nM in the experiment with IL-6. The compound also showed an EC50 at DYRK1A kinase (setting [9]) of 6 nM.
In the case of `Cn1cc(-c2ccc3cnc(NC(=O)c4cc[n+]([O-])c(N5CC[N+](C)([O-])CC5)c4)cc3c2)nn1` [Compound 225, 1-methyl-4-(4-((6-(1-methyl-1H-1,2,3-triazol-4-yl)isoquinolin-3-yl)carbamoyl)-1-oxidopyridin-2-yl)piperazine 1-oxide], the EC50 is 407 nM at GSK3β kinase; over 10000 nM in experiment [1]; over 10000 nM in experiment [2] (setting [5]); over 10 µM in experiment [3] (setting [7]); 3850 nM in experiment [4] (setting [8]); over 10000 nM in the experiment on IL-6. At DYRK1A kinase, a half-maximal effect (EC50) was put at 2 nM. Also, the inhibition at 10 µM worked out at 24.8% in experiment [1], 28.7% in experiment [2] (setting [6]) and 6.9% in the experiment on IL-6.
On to `[2H]C([2H])([2H])[N+]1([O-])CCN(c2cc(C(=O)Nc3cc4cc(-c5cn(C)nn5)ccc4cn3)ccn2)CC1` [Compound 226, 1-(Methyl-d3)-4-(4-((6-(1-methyl-1H-1,2,3-triazol-4-yl)isoquinolin-3-yl)carbamoyl)pyridin-2-yl)piperazine 1-oxide], for which the EC50 is 1190 nM at GSK3β kinase; over 10000 nM in experiment [1]; over 10000 nM in experiment [2] (setting [5]); over 10 µM in experiment [3] (setting [7]); over 10000 nM in experiment [4] (setting [8]); over 10000 nM in the experiment on IL-6. The compound further gave an EC50 on DYRK1A kinase of 4 nM. Besides, the inhibition at 10 µM was 33.2% in experiment [1], 46.9% in experiment [2] (setting [6]), 31.6% in experiment [4] (setting [6]) and 4.5% in the experiment on IL-6.

The EC50 is the concentration at which the effect is half-maximal.
